Source: patent US20070129334A1, “Orally Active Purine-Based Inhibitors of Heat Shock Protein 90” (CONFORMA THERAPEUTICS CORPORATION, priority 2001, published 2007)
Like-named read-outs stand apart in the source and are kept apart here. Values belong to the compound of their own block, whether it stands above or below them.

What was measured:
[1] = tested on: HER-2 receptor (Hsp90 client) in MCF-7 cells; experiment: HER-2 degradation assay (MCF-7 cells, 16 h, phycoerythrin-labeled antibody and flow cytometry); assay type: cell-based, human
[2] = tested on: Purified native Hsp90 protein (mixture of alpha and beta) from HeLa cells; experiment: Fluorescence-based competitive binding assay for biotinylated-geldanamycin to purified Hsp90; parameters: species or system human; settings: HSP90 binding ability; competition with biotin-GM
Her-2 in MCF-7 cells = experiment: HER2 inhibition assay (Her-2 degradation, MCF-7 cells, 24 incubation, flow cytometry); assay type: cell-based; settings: Homo sapiens, MCF7, concentration necessary to degrade 50% of Her 2 expression
Protocol: MCF-7 cells are seeded in 24 well plates at a density of approximately 30,000 cells/well and allowed to grow for 16 hours in DMEM supplemented with 10% FBS. Drug is then added at a concentration range of 100 uM to 0.01 uM. Cells are incubated for an additional […]. Drug treated cells and untreated control cells are trypsinized, and incubated at room temperature for 15 minutes with anti Her-2 neu Ab conjugated with phycoerythrin (Becton Dickinson, San Jose Calif.; Cat no. 340552) at a concentration of 0.25 ug/ml, or non-specific control IgG1 conjugated with phycoerythrin (Becton Dickinson, San Jose Calif.; Cat no. 340761). Samples were analyzed using a FACS Calibur flow cytometer (Becton Dickinson) equipped with Argon-ion laser that which emits 15 mW of 488 nm light for excitation of the phycoerythrin fluorochrome. 10,000 events were collected per sample. A fluorescence histogram was generated and the mean fluorescence intensity (mfi) of each sample was determined using Cellquest software. The background was defined as the mfi generated from cells incubated with control IgG, and was subtracted from each sample stained with the HER-2/neu Ab Percent degradation of Her-2 was calculated as follows: % Her-2 degradation=(mfi HER-2 sample)/(mfi HER-2 untreated cells)×100
The compounds in the table below were prepared as described above and evaluated for Her-2 degradation ability based on the above assay (example 314).

[3] = Solubility in simulated gastric fluid, simulated intestinal fluid and serum; assay type: physicochemical; settings: for Serum (PH 7.4): solubility in serum; for Intestinal (PH 6.5): solubility in simulated intestinal fluid; for Gastric (PH 2.0): solubility in simulated gastric fluid
[4] = Homo sapiens, MCF7, read-out: HER-2 IC50(nM)
[5] = Homo sapiens, MCF7, read-out: HER-2
[6] = Homo sapiens, MCF7, MCF-7 cells, 16 h, average of at least three observations, read-out: HER-2 IC50
[7] = Homo sapiens, MCF7, benzothiozole moiety SAR, MCF-7, read-out: HER-2 IC50

SMILES: CCCCn1c(Sc2nc3cccc(C)c3s2)nc2c(N)ncnc21 [Compound 172, 9-Butyl-8-(7-methyl-benzothiazol-2-ylsulfanyl)-9H-purine-6-ylamine]
IC50 [1, 4]: 300 nM

SMILES: CCCCn1c(Sc2nc3cncc(Cl)c3s2)nc2c(N)ncnc21 [Compound 177, 9-Butyl-8-(7-chloro-thiazole[4,5-c]pyridin-2-ylsulfanyl)-9H-purin-6-ylamine]
IC50 ([1]; pyridothiazole moiety SAR, HER-2 degradation activity, read-out: HER-2): 280 nM

SMILES: COc1ccc(OC)c(Cc2nc3c(N)nc(F)nc3n2CCC=C(C)C)c1 [Compound 3, 8-(2,5-Dimethoxy-benzyl)-2-fluoro-9-(4-methyl-pent-3-enyl)-9H-purin-6-ylamine]
IC50 [2]: 1100 nM | IC50 (Her-2 in MCF-7 cells): 500 nM

SMILES: CC(C)(C)CNCCn1c(Sc2nc3cccc(Cl)c3s2)nc2c(N)ncnc21 [Compound 247, 8-(7-Chloro-benzothiazol-2-ylsulfanyl)-9-[2-(2,2-dimethyl-propylamino)-ethyl]-9H-purin-6-yl amine]
Serum (PH 7.4) [3]: 4.9 µg/mL | Intestinal (PH 6.5) [3]: 6 µg/mL | IC50 [1, 5]: 35 nM

SMILES: CCCCn1c(Sc2nc3cccc(F)c3s2)nc2c(N)ncnc21 [Compound 175, 9-Butyl-8-(7-fluoro-benzothiazol-2-ylsulfanyl)-9H-purine-6-ylamine]
IC50 [1, 4]: 200 nM

SMILES: CC(=O)OCCn1c(Sc2nc3cccc(Cl)c3s2)nc2c(N)ncnc21 [Compound 241, Acetic acid 2-[6-amino-8-(7-chloro-benzothiazol-2-ylsulfanyl)-purin-9-yl]-ethyl ester]
IC50 [1, 5]: 150 nM

SMILES: CCCCn1c(Sc2ccc(I)c(OC)c2)nc2c(N)ncnc21 [Compound 45, 9-Butyl-8-(4-iodo-3-methoxy-phenylsulfanyl)-9H-purin-6-ylamine]
IC50 [2]: 1800 nM | IC50 (Her-2 in MCF-7 cells): 2000 nM

SMILES: CC(=O)OCCCCn1c(Sc2nc3cccc(Cl)c3s2)nc2c(N)ncnc21 [Compound 243, Acetic acid 4-[6-amino-8-(7-chloro-benzothiazol-2-ylsulfanyl)-purin-9-yl]-butyl ester]
Gastric (PH 2.0) [3]: 46 µg/mL | Intestinal (PH 6.5) [3]: 3 µg/mL | IC50 [1, 5]: 130 nM

SMILES: CC(=O)OCCn1c(Sc2nc3cncc(Br)c3s2)nc2c(N)ncnc21 [Compound 204, Acetic acid 2-[6-amino-8-(7-bromo-thiazole[4,5-c]pyridin-2-ylsulfanyl)-purin-9-yl]-ethyl ester]
Gastric (PH 2.0) [3]: 98.5 µg/mL | IC50 ([1]; read-out: HER-2): 30 nM

SMILES: CCCCn1c(Sc2nc3ccccc3s2)nc2c(N)ncnc21 [Compound 178, 8-(Benzothiazol-2-ylsulfanyl)-9-butyl-9H-purine-6-ylamine]
IC50 [1, 7]: 5000 nM

SMILES: CCCCn1c(Sc2nc3cccc(OC)c3s2)nc2c(N)ncnc21 [Compound 173, 9-Butyl-8-(7-methoxy-benzothiazol-2-ylsulfanyl)-9H-purine-6-ylamine]
Serum (PH 7.4) [3]: 18 µg/mL | Gastric (PH 2.0) [3]: 35 µg/mL | Intestinal (PH 6.5) [3]: 2 µg/mL | IC50 [1, 4]: 190 nM

SMILES: CCCCn1c(Sc2nc3cccc(OCC)c3s2)nc2c(N)ncnc21 [Compound 174, 9-Butyl-8-(7-ethoxy-benzothiazol-2-ylsulfanyl)-9H-purine-6-ylamine]
IC50 [1, 7]: 100000 nM

SMILES: CCn1c(Sc2nc3cccc(Cl)c3s2)nc2c(N)ncnc21 [Compound 229, 9-ethyl-8-(7-chloro-benzothiazol-2-ylsulfanyl)-9H-purine-6-ylamine]
IC50 [1, 5]: 200 nM

SMILES: N#CCCCCn1c(Sc2nc3cccc(Cl)c3s2)nc2c(N)ncnc21 [Compound 284, 5-[6-Amino-8-(7-chloro-benzothiazol-2-ylsulfanyl)-purin-9-yl]-pentanenitrile]
Serum (PH 7.4) [3]: 31.3 µg/mL | Gastric (PH 2.0) [3]: 58.7 µg/mL | Intestinal (PH 6.5) [3]: 4.4 µg/mL | IC50 [1, 5]: 110 nM

SMILES: Nc1ncnc2c1nc(Sc1nc3cccc(Cl)c3s1)n2CCO [Compound 244, 2-[6-Amino-8-(7-chloro-benzothiazol-2-ylsulfanyl)-purin-9-yl]-ethanol]
IC50 [1, 5]: 300 nM

SMILES: CCCCCn1c(Sc2nc3cccc(Cl)c3s2)nc2c(N)ncnc21 [Compound 233, 9-Pentyl-8-(7-chloro-benzothiazol-2-ylsulfanyl)-9H-purine-6-ylamine]
IC50 [1, 5]: 700 nM

SMILES: CCCCn1c(Sc2nc3cncc(Br)c3s2)nc2c(N)ncnc21 [Compound 207]
IC50 [1, 5]: 400 nM

SMILES: C#CCCCn1c(Cc2cc(OC)ccc2OC)nc2c(N)nc(F)nc21 [Compound 2, 8-(2,5-dimethoxybenzyl)-N9-pentynyl-2-fluoro adenine]
IC50 (Her-2 in MCF-7 cells): 600 nM

SMILES: CCCCn1c(Sc2nc3cccc(Cl)c3s2)nc2c(N)ncnc21 [Compound 232, 9-Butyl-8-(7-chloro-benzothiazol-2-ylsulfanyl)-9H-purine-6-ylamine]
IC50 [1, 5]: 180 nM | IC50 [1, 4]: 180 nM

SMILES: Nc1ncnc2c1nc(Sc1nc3cccc(Cl)c3s1)n2CCCCO [Compound 246, 4-[6-Amino-8-(7-chloro-benzothiazol-2-ylsulfanyl)-purin-9-yl]-butan-1-ol]
IC50 [1, 5]: 150 nM

SMILES: CCCCn1c(Sc2nc3cc(Cl)ccc3s2)nc2c(N)ncnc21 [Compound 180, 9-Butyl-8-(5-chloro-benzothiazol-2-ylsulfanyl)-9H-purine-6-ylamine]
IC50 [1, 7]: 20000 nM

SMILES: CCCCn1c(Sc2nc3ccc(Cl)c(Cl)c3s2)nc2c(N)ncnc21 [Compound 185, 9-Butyl-8-(6,7-dichloro-benzothiazol-2-ylsulfanyl)-9H-purine-6-ylamine]
IC50 [1, 7]: 25000 nM

SMILES: CCCCn1c(Cc2cc(OC)ccc2Br)nc2c(N)ncnc21 [Compound 23, 8-(2-Bromo-5-methoxy-benzyl)-9-butyl-9H-purin-6-ylamine]
IC50 [1, 6]: 8000 nM

SMILES: CC(=O)OCCCn1c(Sc2nc3cncc(Cl)c3s2)nc2c(N)ncnc21 [Compound 205, Acetic acid 3-[6-amino-8-(7-chloro-thiazolo[4,5-c]pyridin-2-ylsulfanyl)-purin-9-yl]-propyl ester]
IC50 [1, 5]: 170 nM

SMILES: CCCn1c(Sc2nc3cccc(Cl)c3s2)nc2c(N)ncnc21 [Compound 231, 9-Propyl-8-(7-chloro-benzothiazol-2-ylsulfanyl)-9H-purine-6-ylamine]
IC50 [1, 5]: 250 nM

Other lines, results leading:

IC50 [2]: 2800 nM | IC50 (Her-2 in MCF-7 cells): 1500 nM
SMILES: COc1ccc(OC)c(Cc2nc3c(N)ncnc3n2CCC=C(C)C)c1 [Compound 10, 8-(2,5-Dimethoxy-benzyl)-9-(4-methyl-pent-3-enyl)-9H-purin-6-ylamine]

IC50 [1, 5]: 140 nM
SMILES: CC(C)(C)NCCn1c(Sc2nc3cccc(Cl)c3s2)nc2c(N)ncnc21 [Compound 265, 9-(2-tert-Butylamino-ethyl)-8-(7-chloro-benzothiazole-2-ylsulfanyl)-9H-purin-6-yl amine]

IC50 [1, 5]: 250 nM
SMILES: Nc1ncnc2c1nc(Sc1nc3cccc(Cl)c3s1)n2CCN1CCOCC1 [Compound 270, 8-(7-Chloro-benzothiazol-2-ylsulfanyl)-9-(2-morpholin-4-yl-ethyl)-9H-purin-6-ylamine]

IC50 [1, 6]: 5000 nM
SMILES: CCCCn1c(Cc2cc(OC)ccc2I)nc2c(N)ncnc21 [Compound 20, 9-Butyl-8-(2-iodo-5-methoxy-benzyl)-9H-purin-6-ylamine]

IC50 [1, 5]: 150 nM
SMILES: Nc1ncnc2c1nc(Sc1nc3cccc(Cl)c3s1)n2CCCO [Compound 245]

IC50 [1, 6]: 360 nM
SMILES: C#CCCCn1c(Sc2cc(OC)ccc2I)nc2c(N)nc(F)nc21 [Compound 68, 2-Fluoro-8-(2-iodo-5-methoxy-phenylsulfanyl)-9-pent-4-ynyl-9H-purin-6-ylamine]

IC50 [1, 7]: 7000 nM
SMILES: CCCCn1c(Sc2nc3ccc(Cl)cc3s2)nc2c(N)ncnc21 [Compound 179, 9-Butyl-8-(6-chloro-benzothiazol-2-ylsulfanyl)-9H-purine-6-ylamine]

IC50 [1, 7]: 15000 nM
SMILES: CCCCn1c(Sc2nc3c(Cl)cccc3s2)nc2c(N)ncnc21 [Compound 181, 9-Butyl-8-(4-chloro-benzothiazol-2-ylsulfanyl)-9H-purine-6-ylamine]

IC50 [1, 5]: 170 nM
SMILES: CC(C)NCCCn1c(Sc2nc3cccc(Cl)c3s2)nc2c(N)ncnc21 [Compound 266, 8-(7-Chloro-benzothiazol-2-ylsulfanyl)-9-(3-isopropylamino-propyl)-9H-purin-6-yl amine]

Serum (PH 7.4) [3]: 198.7 µg/mL | Intestinal (PH 6.5) [3]: 137.7 µg/mL | IC50 [1, 5]: 150 nM
SMILES: CC(C)(C)NCCCn1c(Sc2nc3cccc(Cl)c3s2)nc2c(N)ncnc21 [Compound 253, 9-(3-tert-Butylamino-propyl)-8-(7-chloro-benzothiazol-2-ylsulfanyl)-9H-purin-6-yl amine]

IC50 [1, 4]: 330 nM
SMILES: CCCCn1c(Sc2nc3cccc(Br)c3s2)nc2c(N)ncnc21 [Compound 171, 8-(7-Bromo-benzothiazol-2-ylsulfanyl)-9-butyl-9H-purine-6-ylamine]

IC50 [1, 6]: 3500 nM
SMILES: CCCCn1c(Sc2cc(OC)ccc2OC)nc2c(N)ncnc21 [Compound 43, 9-Butyl-8-(2,5-dimethoxy-phenylsulfanyl)-9H-purin-6-ylamine]
